Experimental findings from patent publication US20230167073A1 (Teijin Pharma Limited, priority 2020, published 2023) are described below.

Where only a bound is given, the exact number is not on record here.

This assay concerns the target T1, Human TRPC6 (Homo sapiens, UniProt Q9Y210).
T1 construct: expressed in transfected cells
T1 sequence (Q9Y210 1-931): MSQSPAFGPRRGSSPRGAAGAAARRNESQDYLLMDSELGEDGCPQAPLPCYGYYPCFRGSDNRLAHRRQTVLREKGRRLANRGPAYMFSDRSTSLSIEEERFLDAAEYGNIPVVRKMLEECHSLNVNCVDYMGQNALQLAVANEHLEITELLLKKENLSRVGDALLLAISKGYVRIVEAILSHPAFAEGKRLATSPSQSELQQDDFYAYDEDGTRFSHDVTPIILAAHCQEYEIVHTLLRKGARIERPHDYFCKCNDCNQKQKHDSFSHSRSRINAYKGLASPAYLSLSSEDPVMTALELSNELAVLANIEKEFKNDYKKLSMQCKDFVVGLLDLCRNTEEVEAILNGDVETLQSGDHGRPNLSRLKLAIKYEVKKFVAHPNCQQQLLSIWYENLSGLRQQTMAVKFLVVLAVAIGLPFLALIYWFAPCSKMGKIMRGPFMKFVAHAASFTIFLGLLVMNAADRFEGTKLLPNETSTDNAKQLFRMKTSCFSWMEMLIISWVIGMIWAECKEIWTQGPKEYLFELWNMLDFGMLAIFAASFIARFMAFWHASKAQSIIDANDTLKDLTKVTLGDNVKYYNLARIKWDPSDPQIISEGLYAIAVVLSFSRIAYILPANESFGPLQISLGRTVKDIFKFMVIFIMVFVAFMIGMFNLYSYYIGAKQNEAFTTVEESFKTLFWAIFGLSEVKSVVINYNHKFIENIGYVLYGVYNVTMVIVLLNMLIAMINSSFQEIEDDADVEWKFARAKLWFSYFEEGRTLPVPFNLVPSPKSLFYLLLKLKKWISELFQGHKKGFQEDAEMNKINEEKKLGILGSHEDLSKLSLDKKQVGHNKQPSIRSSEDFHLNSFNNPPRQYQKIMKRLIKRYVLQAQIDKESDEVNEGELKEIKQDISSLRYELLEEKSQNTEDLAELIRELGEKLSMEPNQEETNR
As to the kind of experiment: Evaluation of TRPC6 channel inhibitory activity (1), FLIPR Calcium 5 Assay Kit, OAG stimulation (Compound Nos. 1-1293). The class given is cell-based. The note with it: Human TRPC6 stably-expressing cells, OAG 30 μM, FLIPR Calcium 5 Assay Kit; read-out: Inhibitory activity (pIC50 class) (converted). The essentials:
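TRPC6 (human) stable cells, 24 h culture; Ca5 no-wash dye + probenecid 30 min; cpd 20 min; OAG 30 μM final; ΔF (pre-cpd min to post-OAG max); 0%/100% = no cpd / no cpd + no OAG; 4PL → pIC50, binned +/++/+++.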
Regarding `Cc1nc(CN2CCCCC2)cn1Cc1cc(C#N)ccc1-c1ncc(CCN)cn1` [Compound No. 1179, 4-[5-(2-Aminoethyl)pyrimidin-2-yl]-3-[[2-methyl-4-(piperidin-1-ylmethyl)imidazol-1-yl]methyl]benzonitrile], the IC50 was above 1000 nM.

Turning to `Cc1nc(Oc2cc(C#N)ccc2-c2ccc(C(O)CN)c(C(F)(F)F)c2)cc(N2CCOCC2)n1` (centres unmarked) [Compound 151, 4-[4-(2-amino-1-hydroxyethyl)-3-(trifluoromethyl)phenyl]-3-(2-methyl-6-morpholin-4-ylpyrimidin-4-yl)oxybenzonitrile], the IC50 was 10 to 1000 nM.

Consider `Cc1nc(Oc2cc(C#N)ccc2-c2ccc(CCN)cc2)cc(N2CCC[C@@H]2C#N)n1` [Compound 130, (2R)-1-[6-[2-[4-(2-aminoethyl)phenyl]-5-cyanophenoxy]-2-methylpyrimidin-4-yl]pyrrolidine-2-carbonitrile], for which the IC50 was below 10 nM.

As for `Cc1cc(Oc2cc(C#N)ccc2-c2ncc(CCN)cn2)cc(N2CCO[C@@H](C(F)F)C2)n1` [compound 444, 4-[5-(2-aminoethyl)pyrimidin-2-yl]-3-[2-[(2R)-2-(difluoromethyl)morpholin-4-yl]-6-methylpyridin-4-yl]oxybenzonitrile], the IC50 is below 10 nM.

For the molecule `Cc1nc(Oc2cc(C#N)ccc2-n2cc([C@@H](O)CN)cn2)cc(-c2ccccc2C(F)(F)F)n1` [compound 351, 4-[4-[(1R)-2-amino-1-hydroxyethyl]pyrazol-1-yl]-3-[2-methyl-6-[2-(trifluoromethyl)phenyl]pyrimidin-4-yl]oxybenzonitrile], the IC50 is 10 to 1000 nM.

Regarding `Cc1cc(Oc2cc(C#N)ccc2-c2ccc(C3(F)CNC3)cn2)cc(N2CCOCC2)n1` [compound 538, 4-[5-(3-fluoroazetidin-3-yl)pyridin-2-yl]-3-(2-methyl-6-morpholin-4-ylpyridin-4-yl)oxybenzonitrile], the IC50 was 10 to 1000 nM.

As to `N#Cc1ccc(-c2ccc(C(O)CN)cc2)c(Sc2cnnc(N3CCOCC3)c2)c1` (centres unmarked) [compound 1238, 4-[4-(2-amino-1-hydroxyethyl)phenyl]-3-(6-morpholin-4-ylpyridazin-4-yl)sulfanylbenzonitrile], the IC50 is above 1000 nM.

Take `N#Cc1ccc(-c2ncc(CCN)cn2)c(Cn2cnc(-c3ccccc3)c2)c1` [compound 1135, 4-[5-(2-aminoethyl)pyrimidin-2-yl]-3-[(4-phenylimidazol-1-yl)methyl]benzonitrile]: the IC50 was below 10 nM.

As to `CCc1c(Oc2cc(C#N)ccc2-c2ncc(CCN)cn2)cnn1CC(C)C` [compound 954, 4-[5-(2-aminoethyl)pyrimidin-2-yl]-3-[5-ethyl-1-(2-methylpropyl)pyrazol-4-yl]oxybenzonitrile], the IC50 was 10 to 1000 nM.

In the case of `Cn1nc(-c2ccccn2)cc1Oc1cc(C#N)ccc1-c1ncc(CN)s1` [compound 521, 4-[5-(aminomethyl)-1,3-thiazol-2-yl]-3-(2-methyl-5-pyridin-2-ylpyrazol-3-yl)oxybenzonitrile], the IC50 is below 10 nM.

For `CC(C)COCc1cncn1Cc1cc(C#N)ccc1-c1ccc(CCN)cc1` [compound 1117, 4-[4-(2-aminoethyl)phenyl]-3-[[5-(2-methylpropoxymethyl)imidazol-1-yl]methyl]benzonitrile], the IC50 was 10 to 1000 nM.

`Cc1nc(OCC2CCC2)cc(Oc2cc(C#N)ccc2-n2cc([C@@H](O)CN)cn2)n1` [Compound 270, 4-[4-[(1R)-2-amino-1-hydroxyethyl]pyrazol-1-yl]-3-[6-(cyclobutylmethoxy)-2-methylpyrimidin-4-yl]oxybenzonitrile]: the IC50 was 10 to 1000 nM.

On to `Cn1nc(C2CCC2)cc1Oc1cc(C#N)ccc1-c1cnc(C(O)CN)cn1` (centres unmarked) [Compound 287, 4-[5-(2-amino-1-hydroxyethyl)pyrazin-2-yl]-3-(5-cyclobutyl-2-methylpyrazol-3-yl)oxybenzonitrile], for which the IC50 is below 10 nM.

For `Cc1nc(Oc2cc(C#N)ccc2-c2ccc(CCN)cc2)cc(N2CC(F)(F)C2)n1` [Compound 24, 4-[4-(2-aminoethyl)phenyl]-3-[6-(3,3-difluoroazetidin-1-yl)-2-methylpyrimidin-4-yl]oxybenzonitrile], the IC50 was 10 to 1000 nM.
